Consider one compound from PMC3369921, “Ecto-5′-Nucleotidase: A Candidate Virulence Factor in Streptococcus sanguinis Experimental Endocarditis” (PLoS ONE, 2012).

The target in the assay is T1, ecto-5′-nucleotidase (Nt5e) (Streptococcus sanguinis, UniProt I3RY26).
T1 construct: native enzyme on whole cells of S. sanguinis strain 133-79
Put plainly: whole-cell AMPase activity (phosphate release) dose-inhibition and Michaelis-Menten analysis. The class given is cell-based.

T1 sequence (I3RY26 entry or part of it): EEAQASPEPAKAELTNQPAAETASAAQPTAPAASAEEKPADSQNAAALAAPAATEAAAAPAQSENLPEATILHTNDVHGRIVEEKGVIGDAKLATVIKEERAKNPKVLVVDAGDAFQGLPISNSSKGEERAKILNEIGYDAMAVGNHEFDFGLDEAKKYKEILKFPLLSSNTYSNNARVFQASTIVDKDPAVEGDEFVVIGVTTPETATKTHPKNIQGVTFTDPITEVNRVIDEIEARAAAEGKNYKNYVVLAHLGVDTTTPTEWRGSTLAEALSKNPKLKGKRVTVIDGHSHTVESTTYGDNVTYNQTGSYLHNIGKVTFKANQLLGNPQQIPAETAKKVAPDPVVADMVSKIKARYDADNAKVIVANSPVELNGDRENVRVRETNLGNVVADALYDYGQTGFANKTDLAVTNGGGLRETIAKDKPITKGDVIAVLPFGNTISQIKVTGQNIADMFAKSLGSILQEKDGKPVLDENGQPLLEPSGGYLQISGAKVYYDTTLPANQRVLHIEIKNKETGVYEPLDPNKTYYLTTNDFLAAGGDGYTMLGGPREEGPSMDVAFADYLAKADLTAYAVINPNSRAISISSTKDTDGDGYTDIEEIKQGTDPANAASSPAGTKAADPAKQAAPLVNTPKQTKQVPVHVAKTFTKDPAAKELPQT

The IC50 is the concentration that gives 50% inhibition. Low readings indicate higher potency, high ones lower potency. `Nc1ncnc2c1ncn2[C@@H]1O[C@H](COP(=O)(O)CP(=O)(O)O)[C@@H](O)[C@H]1O` [APCP]: the IC50 came out at 8.8 ± 3.8 µM.
